Data: patent US9631196B2, “Genetic manipulation and expression systems for Pucciniomycotina and Ustilaginomycotina subphyla” (priority 2011, dated 2017)
Read-outs that look alike come from different tables or passages of the source.

Tests used:
U maydis spheroplasts = type: cell-based, Ustilago maydis
Text: (§1) cyp1 (um11812) and ptf1 (um02713) genes were chosen for the comparison of gene-targeting frequency, which can be monitored by the loss of ustilagic acids (UA) production and the loss of Fuz^+ colonies, respectively. Gene deletion constructs, pKOcyp1 and pKOprf1, were made by one-step ligation of four fragments. pKOcyp1 is composed of the 2.0-kb HindIII-PacI fragment containing the Pgpd::hpt cassette, the 8.7 kb NcoI-KpnI fragment from pEX2tk, the 1405 bp NcoI-HindIII and the 1076 bp PacI-KpnI PCR product derived from the upstream and downstream regions of the cyp1 ORF. The oligo pairs Cyp1L-Nf/Cyp1L-Hr (SEQ ID NO:29/SEQ ID NO:30) and Cyp1R-Pf/Cyp1R-Kr (SEQ ID NO:31/SEQ ID NO:32) were used for the amplification of upstream and downstream region, respectively. pKOprf1 was made similarly except the PCR product of oligo pairs Prf1L-Nf/Prf1L-Hr (SEQ ID NO:33/SEQ ID NO:34) and Prf1R-Pf/Prf1R-Kr (SEQ ID NO:35/SEQ ID NO:36) were used as the upstream and downstream homology region, respectively. Correct strains were identified by colony PCR using Taq DNA polymerase based on the size of the expected constructs using oligos LB/Cyp1L-Nf (SEQ ID NO:37/SEQ ID NO:29) and LB/Prf1L-Nf (SEQ ID NO:37/SEQ ID NO:33) for cyp1Δ and prf1Δ respectively. The same construction and identification techniques were applied to generate other gene deletion mutants in this study.
PEG-mediated transformation of U maydis spheroplasts were done as described previously (Kämper, 2004). Briefly, the 4.5 kb cyp1 and prf1 gene deletion cassettes were amplified from pKOcyp1 and pKOprf1 using the Expand Long System (Roche Diagnosis, USA) and oligos Cyp1L-Nf/Cyp1R-Kr (SEQ ID NO:29/SEQ ID NO:32) and Prf1L-Nf/Prf1R-Kr (SEQ ID NO:33/SEQ ID NO:36), respectively. The PCR products were gel purified (Qiagen, Germany) and used for transformation. […]

U. maydis L8 and SG200 = type: cell-based, Ustilago maydis; details: for cyp1Δ (%) gene knockout frequency / prf1 Δ (%) gene knockout frequency: co-culture 2 days
Text: as §1
Similar results were obtained when knockout was performed via the ATMT transformation (Table 9).

[1] = NU7026 1 μM in top and bottom regeneration media, 3 days, out of 288 transformants

## O=c1cc(N2CCOCC2)oc2c1ccc1ccccc12 [NU7026, 2-(morpholin-4-yl)-benzo[h]chomen-4-one; 2-(4-morpholinyl)-4H-naphthol[1,2-b]pyran-4-one]
U maydis spheroplasts; [1]
  cyp1Δ gene knockout frequency: 16.67%
  prf1Δ gene knockout frequency: 26.39%
U maydis spheroplasts; both cyp1 and prf1, NU7026 1 μM vs control
  increase of gene knockout frequency: about 3 folds
U. maydis L8 and SG200; NU7026 0.1 μM
  cyp1Δ (%) gene knockout frequency: 8.3%
  prf1 Δ (%) gene knockout frequency: 11.4%
U. maydis L8 and SG200; NU7026 1 μM
  cyp1Δ (%) gene knockout frequency: 18.8%
  prf1 Δ (%) gene knockout frequency: 25.1%
U. maydis L8 and SG200; NU7026 5 μM
  cyp1Δ (%) gene knockout frequency: 10.4%
  prf1 Δ (%) gene knockout frequency: 12.7%
U. maydis L8 and SG200; NU7026 10 μM
  cyp1Δ (%) gene knockout frequency: 8.3%
  prf1 Δ (%) gene knockout frequency: 8.7%
U. maydis L8 and SG200; NU7026 50 μM
  cyp1Δ (%) gene knockout frequency: 7.4%
  prf1 Δ (%) gene knockout frequency: 8.5%
U. maydis L8 and SG200; cyp1Δ, NU7026 0.1 μM
  total number of transformants obtained in 5 transformation plates: 601
U. maydis L8 and SG200; cyp1Δ, NU7026 1 μM
  total number of transformants obtained in 5 transformation plates: 496
U. maydis L8 and SG200; cyp1Δ, NU7026 5 μM
  total number of transformants obtained in 5 transformation plates: 413
U. maydis L8 and SG200; cyp1Δ, NU7026 10 μM
  total number of transformants obtained in 5 transformation plates: 96
U. maydis L8 and SG200; cyp1Δ, NU7026 50 μM
  total number of transformants obtained in 5 transformation plates: 68
U. maydis L8 and SG200; prf1Δ, NU7026 0.1 μM
  total number of transformants obtained in 5 transformation plates: 642
U. maydis L8 and SG200; prf1Δ, NU7026 1 μM
  total number of transformants obtained in 5 transformation plates: 554
U. maydis L8 and SG200; prf1Δ, NU7026 5 μM
  total number of transformants obtained in 5 transformation plates: 361
U. maydis L8 and SG200; prf1Δ, NU7026 10 μM
  total number of transformants obtained in 5 transformation plates: 172
U. maydis L8 and SG200; prf1Δ, NU7026 50 μM
  total number of transformants obtained in 5 transformation plates: 59
